From patent publication US20180110824A1, “Macrocyclic Modulators of the Ghrelin Receptor” (Ocera Therapeutics, Inc., priority 2016, published 2018)

biological target: T1, human growth hormone secretagogue receptor (hGHS-R1a) (Homo sapiens, UniProt Q92847); experiment: Competitive radioligand binding assay (ghrelin receptor), [125I]-ghrelin displacement on GHS-R/HEK 293 membranes; details: Binding activity at the human ghrelin receptor, [125I]-ghrelin displacement; read-out: Ki;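 for Binding Activity at the Human Ghrelin Receptor (Ki): symbols B 10-100 nM C 0.1-1 µM D 1-10 µM F above 1 µM G above 10 µM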
T1 construct: purchased PerkinElmer BioSignal #RBHGHSM; host or cells: HEK-293, stably transfected
Experimental: The competitive binding assay at the human growth hormone secretagogue receptor (hGHS-R1a) was carried out analogously to assays described in the literature.
Multiscreen Harvest plates-GF/C (Millipore, #MAHFC1H60) • 4. […] Bottom seal (Millipore, #MATAH0P00) • 7. […] Binding Buffer: 25 mM Hepes (pH 7.4), 1 mM CaCl2, 5 mM MgCl2, 2.5 mM EDTA, 0.4% BSA
Competition experiments were performed in a 300 μl filtration assay format. • 1. 220 μL of membranes diluted in binding buffer • 2. 40 μL of compound diluted in binding buffer • 3.
Compounds were provided frozen on dry ice at a stock concentration of 10 mM diluted in 100% DMSO and stored at −80° C. until the day of testing. On the test day, compounds were allowed to thaw at rt O/N and then diluted in assay buffer according to the desired test concentrations. Under these conditions, the maximal final DMSO concentration in the assay was 0.1%.
Plates were sealed with TopSeal-A, vortexed gently and incubated at rt for 30 min. The reaction was arrested by filtering samples through Multiscreen Harvest plates (pre-soaked in 0.5% polyethyleneimine) using a Tomtec Harvester, washed 9 times with 500 μL of cold 50 mM Tris-HCl (pH 7.4, 4° C.), and then plates were air-dried in a fumehood 30 min. A bottom seal was applied to the plates prior to the addition of 25 μL of MicroScint-0 to each well. […] Results were expressed as counts per minute (cpm).
Data were analyzed by GraphPad Prism (GraphPad Software, San Diego, Calif.) using […] non-linear regression analysis.
where total and non-specific binding represent the cpm obtained in the absence or presence of 1 μM ghrelin, respectively.
• 1. Binding performed on membranes prepared from HEK293 expressing the transfected, cloned human ghrelin receptor (hGHS-R1a). • 2. […] Ghrelin (unlabeled, 1 μM) was used to determine non-specific binding. • 4.

T1 sequence (Q92847 whole entry): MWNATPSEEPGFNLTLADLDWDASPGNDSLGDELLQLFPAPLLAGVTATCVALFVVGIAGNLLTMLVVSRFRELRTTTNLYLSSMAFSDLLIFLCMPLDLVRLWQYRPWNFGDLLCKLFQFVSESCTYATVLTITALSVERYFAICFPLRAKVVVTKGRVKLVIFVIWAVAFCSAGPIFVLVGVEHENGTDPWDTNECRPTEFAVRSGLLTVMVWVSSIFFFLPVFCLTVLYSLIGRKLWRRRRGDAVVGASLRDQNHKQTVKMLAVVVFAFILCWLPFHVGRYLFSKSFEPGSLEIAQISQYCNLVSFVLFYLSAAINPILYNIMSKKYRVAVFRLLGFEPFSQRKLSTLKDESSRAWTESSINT

For `O=C1NC2(CCCC2)C(=O)N[C@@H](Cc2ccccc2)C(=O)NC/C=C/c2ccccc2OCCN[C@H]1Cc1ccc2ccccc2c1` [compound 131], which Ki is on record?
The Ki was 0.1 to 1 µM.

Which Ki does the source give for `O=C1NC2(CCCC2)C(=O)N[C@@H](Cc2ccccc2)C(=O)NC/C=C/c2ccccc2OCCN[C@H]1Cc1cscn1` [compound 134] here?
The Ki was 0.1 to 1 µM.

With `O=C1NC2(CCCC2)C(=O)N[C@@H](Cc2ccccc2)C(=O)NC/C=C/c2ccccc2OCCN[C@H]1Cc1cccs1` [compound 135] as the compound, how does the Ki read?
Its Ki is 0.1 to 1 µM.

For `CCC[C@@H]1NCCOc2ccccc2/C=C/CNC(=O)[C@H](Cc2ccccc2)NC(=O)C2(CCCC2)NC1=O` [compound 137], which Ki is on record?
Its Ki is 0.01 to 0.1 µM.

With `CC(C)C1NCCOc2ccccc2/C=C/CNC(=O)C(Cc2ccccc2)NC(=O)C2(Cc3ccccc3C2)NC1=O` (stereo not shown) [compound 142] as the compound, how does the Ki read?
The Ki was 0.1 to 1 µM.

How did the Ki turn out when `CC(C)C1NCCOc2ccccc2/C=C/CNC(=O)C(Cc2ccccc2)NC(=O)C2(CCSCC2)NC1=O` (stereo not shown) [compound 143] was run?
The Ki was 0.1 to 1 µM.

With `CC[C@H](C)[C@@H]1NCCOc2ccccc2CCCNC(=O)[C@@H](Cc2ccccc2)NC(=O)[C@@H](C(C)C)N(C)C1=O` [compound 144] as the compound, how does the Ki read?
The Ki was 0.1 to 1 µM.

How did the Ki turn out when `CC[C@@H](C)[C@@H]1C(=O)N[C@H](Cc2ccccc2)C(=O)NCCCc2ccccc2OCCN[C@@H]([C@@H](C)CC)C(=O)N1C` [compound 149] was run?
Its Ki is 1 to 10 µM.

same assay, conditions: Table 3B; binding activity at the human ghrelin receptor; read-out: Ki

`O=C1NC2(CCCC2)C(=O)N[C@@H](Cc2cccc(Cl)c2)C(=O)NC/C=C/c2ccccc2OCCN[C@H]1Cc1ccc(O)cc1` [compound 301] was tested. Which Ki did it give?
Its Ki is 0.01 to 0.1 µM.

How did the Ki turn out when `C[C@@H]1C(=O)N[C@H](Cc2ccc(F)cc2)C(=O)NCCC=CCOCCN[C@@H](C2CC2)C(=O)N1C` [compound 307] was run?
Its Ki is 0.1 to 1 µM.

With `C[C@@H]1C(=O)N[C@H](Cc2ccc(F)cc2)C(=O)NCCCc2ccccc2OCCN[C@@H](C2CC2)C(=O)N1C` [compound 309] as the compound, how does the Ki read?
Its Ki is 0.0001 to 0.01 µM.

`C[C@@H]1C(=O)N[C@H](Cc2ccsc2)C(=O)NCCCc2ccccc2OCCN[C@@H](C2CC2)C(=O)N1C` [compound 310] was tested. Which Ki did it give?
Its Ki is 0.01 to 0.1 µM.

Which Ki does the source give for `C[C@@H]1C(=O)N[C@H](Cc2ccccc2F)C(=O)NCCCc2ccccc2OCCN[C@@H](C2CC2)C(=O)N1C` [compound 312] here?
Its Ki is 0.0001 to 0.01 µM.

With `C[C@@H]1C(=O)N[C@H](Cc2cccc(F)c2)C(=O)NCCCc2ccccc2OCCN[C@@H](C2CC2)C(=O)N1C` [compound 313] as the compound, how does the Ki read?
The Ki was 0.01 to 0.1 µM.

`C[C@@H]1C(=O)N[C@H](Cc2ccc(Cl)c(Cl)c2)C(=O)NCCCc2ccccc2OCCN[C@@H](C2CC2)C(=O)N1C` [compound 315] was tested. Which Ki did it give?
Its Ki is 0.0001 to 0.01 µM.

`C[C@@H]1C(=O)N[C@H](Cc2ccc(F)c(F)c2)C(=O)NCCCc2ccccc2OCCN[C@@H](C2CC2)C(=O)N1C` [compound 316] was tested. Which Ki did it give?
Its Ki is 0.01 to 0.1 µM.

Which Ki does the source give for `C[C@@H]1C(=O)N[C@H](Cc2cc(F)cc(F)c2)C(=O)NCCCc2ccccc2OCCN[C@@H](C2CC2)C(=O)N1C` [compound 317] here?
Its Ki is 0.01 to 0.1 µM.

For `C[C@@H]1C(=O)N[C@H](Cc2ccc(Br)cc2)C(=O)NCCCc2ccccc2OCCN[C@@H](C2CC2)C(=O)N1C` [compound 319], which Ki is on record?
Its Ki is 0.0001 to 0.01 µM.

For `C[C@@H]1C(=O)N[C@H](Cc2ccc(I)cc2)C(=O)NCCCc2ccccc2OCCN[C@@H](C2CC2)C(=O)N1C` [compound 320], which Ki is on record?
Its Ki is 0.0001 to 0.01 µM.

Which Ki does the source give for `C[C@@H]1C(=O)N[C@H](Cc2ccc(C#N)cc2)C(=O)NCCCc2ccccc2OCCN[C@@H](C2CC2)C(=O)N1C` [compound 321] here?
Its Ki is 0.01 to 0.1 µM.

Which Ki does the source give for `COc1ccc(C[C@H]2NC(=O)[C@@H](C)N(C)C(=O)[C@H](C3CC3)NCCOc3ccccc3CCCNC2=O)cc1OC` [compound 323] here?
Its Ki is 0.1 to 1 µM.

For `CC[C@H](C)[C@@H]1NCCOc2ccccc2/C=C/CNC(=O)[C@H](Cc2cccc(Br)c2)NC(=O)C2(CCCC2)NC1=O` [compound 326], which Ki is on record?
Its Ki is 0.01 to 0.1 µM.

How did the Ki turn out when `CC[C@H](C)[C@@H]1NCCOc2ccccc2/C=C/CNC(=O)[C@H](Cc2cccc(C#N)c2)NC(=O)C2(CCCC2)NC1=O` [compound 329] was run?
Its Ki is 0.01 to 0.1 µM.

`CCC(C)C1NCCOc2ccccc2C=CCNC(=O)C(Cc2ccsc2)NC(=O)C2(CCCC2)NC1=O` (stereo not shown) [compound 333] was tested. Which Ki did it give?
Its Ki is 0.1 to 1 µM.

`CO[C@H](C)[C@@H]1NCCOc2ccccc2CCCNC(=O)[C@@H](Cc2ccc(F)cc2)NC(=O)[C@@H](C)N(C)C1=O` [compound 335] was tested. Which Ki did it give?
The Ki was 0.01 to 0.1 µM.

same assay, conditions: Table 3E; read-out: Ki

Which Ki does the source give for `CCC[C@@H]1NCCOc2ccccc2CCCNC(=O)[C@@H](Cc2ccccc2)NC(=O)[C@@H]2CCCN2C1=O` [compound 220] here?
The Ki was 1 to 10 µM.

For `CC(C)C[C@@H]1NCCOc2ccccc2CCCNC(=O)[C@H](Cc2ccccc2)NC(=O)[C@@H]2CCCN2C1=O` [compound 222], which Ki is on record?
The Ki was 1 to 10 µM.

Which Ki does the source give for `CC(C)C[C@@H]1NCCOc2ccccc2CCCNC(=O)[C@H](Cc2ccccc2)NC(=O)[C@H]2CCCN2C1=O` [compound 223] here?
The Ki was 1 to 10 µM.

Which Ki does the source give for `C[C@@H]1C(=O)N[C@H](Cc2ccccc2)C(=O)NCCCc2ccccc2OCCN2CCC[C@H]2C(=O)N1C` [compound 225] here?
The Ki was 0.1 to 1 µM.

same assay, conditions: [125I]-ghrelin displacement, GHS-R/HEK 293 membranes; class symbols; read-out: Binding Activity at the Human Ghrelin Receptor (Ki)

`CC(C)C[C@@H]1NCCOc2ccccc2/C=C/CNC(=O)[C@H](C(c2ccccc2)c2ccccc2)NC(=O)C2(CCCC2)NC1=O` [compound 158] was tested. Which Ki did it give?
The Ki was > 1 µM.

`CC(C)C[C@@H]1NCCOc2ccccc2/C=C/CNC(=O)[C@H](Cc2cscn2)NC(=O)C2(CCCC2)NC1=O` [compound 163] was tested. Which Ki did it give?
Its Ki is > 10 µM.

Which Ki does the source give for `CC[C@H](C)[C@@H]1NCCCc2ccccc2CCNC(=O)[C@@H](Cc2ccccc2)NC(=O)[C@@H](C)N(C)C1=O` [compound 179] here?
Its Ki is 0.1 to 1 µM.

`CC[C@H](C)[C@@H]1NCCCCc2ccccc2CCNC(=O)[C@@H](Cc2ccccc2)NC(=O)[C@@H](C)N(C)C1=O` [compound 180] was tested. Which Ki did it give?
The Ki was 0.1 to 1 µM.

Which Ki does the source give for `CC[C@H](C)[C@@H]1NCCOCC=CCNC(=O)[C@@H](Cc2ccccc2)NC(=O)[C@@H](C)N(C)C1=O` [compound 185] here?
The Ki was 0.1 to 1 µM.

With `CC[C@H](C)[C@@H]1NCCc2ccccc2C=CCNC(=O)[C@@H](Cc2ccccc2)NC(=O)[C@@H](C)N(C)C1=O` [compound 187] as the compound, how does the Ki read?
The Ki was 0.1 to 1 µM.

`CC(C)[C@@H]1NCCOc2ccccc2/C=C/CNC(=O)[C@H](Cc2ccccc2)NC(=O)C2(CCCC2)NC1=O` [compound 200] was tested. Which Ki did it give?
The Ki was 0.01 to 0.1 µM.

`CCC[C@H]1C(=O)N(C)[C@H](C)C(=O)N[C@H](Cc2ccccc2)C(=O)NCCCc2ccccc2OCCN1C(C)=O` [compound 202] was tested. Which Ki did it give?
Its Ki is > 10 µM.

Which Ki does the source give for `CC(=O)N1CCOc2ccccc2/C=C/CNC(=O)[C@H](Cc2ccccc2)NC(=O)C2(CCCC2)NC(=O)[C@@H]1CC(C)C` [compound 204] here?
Its Ki is > 10 µM.

`CC(C)C1NCCOc2ccccc2CCCNC(=O)C(Cc2ccccc2)NC(=O)C2(CCNCC2)NC1=O` (stereo not shown) [compound 207] was tested. Which Ki did it give?
Its Ki is > 10 µM.

With `O=C1NC2(CCCC2)C(=O)N[C@@H](Cc2ccccc2)C(=O)NC/C=C/c2ccccc2OCCN[C@H]1Cc1ccccn1` [compound 210] as the compound, how does the Ki read?
The Ki was > 1 µM.

With `CC(C)[C@@H]1NCCOc2ccccc2/C=C/CNC(=O)[C@H](Cc2ccccc2)NC(=O)C2(CCNCC2)NC1=O` [compound 211] as the compound, how does the Ki read?
The Ki was > 1 µM.

With `CCC(C)C1NCCOc2ccccc2CCCNC(=O)C(Cc2ccccc2)NC(=O)C(COC(C)(C)C)NC1=O` (stereo not shown) [compound 215] as the compound, how does the Ki read?
The Ki was 1 to 10 µM.

How did the Ki turn out when `CC(C)[C@@H]1NCCOc2ccccc2CCCNC(=O)[C@H](Cc2ccccc2)NC(=O)C2(CC2)NC1=O` [compound 216] was run?
Its Ki is 1 to 10 µM.

`O=C1NC/C=C/c2ccccc2OCCNC2(CCCCC2)C(=O)NC2(CCCC2)C(=O)N[C@H]1Cc1ccccc1` [compound 218] was tested. Which Ki did it give?
Its Ki is 0.01 to 0.1 µM.

`O=C1NC2(CCCC2)C(=O)N[C@@H](Cc2ccccc2)C(=O)NC/C=C/c2ccccc2OCCN[C@H]1Cc1cnc[nH]1` [compound 219] was tested. Which Ki did it give?
The Ki was 0.1 to 1 µM.

`CCC[C@@H]1NCCOc2ccccc2CCCNC(=O)[C@@H](Cc2ccccc2)NC(=O)[C@@H]2CCCN2C1=O` [compound 220] was tested. Which Ki did it give?
The Ki was 1 to 10 µM.

How did the Ki turn out when `CC(C)C[C@@H]1NCCOc2ccccc2CCCNC(=O)[C@H](Cc2ccccc2)NC(=O)[C@@H]2CCCN2C1=O` [compound 222] was run?
Its Ki is 1 to 10 µM.

How did the Ki turn out when `CC(C)C[C@@H]1NCCOc2ccccc2CCCNC(=O)[C@H](Cc2ccccc2)NC(=O)[C@H]2CCCN2C1=O` [compound 223] was run?
Its Ki is 1 to 10 µM.

For `C[C@@H]1C(=O)N[C@H](Cc2ccccc2)C(=O)NCCCc2ccccc2OCCN2CCC[C@H]2C(=O)N1C` [compound 225], which Ki is on record?
The Ki was 0.1 to 1 µM.
